Laboratory results published in PubChem BioAssay AID743127 (The Scripps Research Institute Molecular Screening Center, 2013).
Activity calls are given as the source filed them. No rule for the calls is given here.

Assay: cytotoxicity of LYPLA inhibitor compounds, late-stage follow-up, cytotoxicity control for LYPLA1/LYPLA2 inhibitor project, cell-based, absorbance readout, serum-free and serum-supplemented medium (AID 743127)
Conditions: cell viability, serum-free or serum medium

For O=C(ON1C(=O)C2CN(C(=O)N3CCOCC3)CCN2C1=O)N1CCC(CCc2ccc(Cl)cc2)CC1 (centres undefined), the CC50 (in serum-free medium) was > 100 µM (inactive) and the CC50 (in serum-supplemented medium) was 100 µM (inactive).
In the case of O=C(ON1C(=O)C2CN(C(=O)N3CCCCC3)CCN2C1=O)N1CCC(CCc2ccc(Cl)cc2)CC1 (centres undefined), the CC50 (in serum-free medium) is reported as > 10 µM (inactive) and the CC50 (in serum-supplemented medium) is reported as > 10 µM (inactive).
